Calls of active or inactive are those of the source. The calls are words filed in the database; no cut-off is given here.
Biological target: Prothrombin (Homo sapiens) (UniProt P00734)
Experiment: Tested for thrombin inhibitory activity by fibrinogen dependent thrombin assay; Inactive

- Activity: inactive
SMILES: Cc1cn([C@H]2C[C@@H]3OP(=O)(O)OC[C@H]4O[C@@H](n5cnc6c(O)nc(N)nc65)C[C@@H]4OP(=O)(O)OC[C@H]4O[C@@H](C[C@@H]4OP(=O)(O)OC(C)C)n4cc(c(=O)[nH]c4=O)COCOC[C@H]3O2)c(=O)[nH]c1=O
